Consider 89 molecules from a melting point compilation (Tetko et al.; mined from patent text by program, amines drawn as free bases though some values may be those of a salt).

The molecule `Cc1nc2c(cc1C#CCO)c(=O)c(C(=O)NCc1ccc(Cl)cc1)cn2C` came in with a melting point of 217 to 218 °C.

For `OC(CN=CCc1cnc(-c2ccccc2)nc1-c1ccccc1)c1ccccc1` (centres undefined), the melting point lay in the range of 140 to 144 °C.

For `N#Cc1c(O)ccc2oc(-c3ccc(O)cc3)cc12`, the melting point was > 230 °C.

`CN1CC(CCCl)c2nc3ccccc3n2C1=O` (centres undefined): the melting point fell in the range of 88 to 91 °C.

Molecule `CC(O)C#Cc1ncn2c1CN(C)C(=O)c1c(Cl)cccc1-2` (centres undefined) yielded a melting point of 251 to 252 °C.

On to `CCC(=CC(CNC(=O)c1c(C)noc1C)=NO)C(C)[N+](=O)[O-]` (centres undefined), for which the melting point was 100 to 103 °C.

In turn, `CC1(C)CCC(C)(C)c2cc(-c3cc(-c4ccc(C(=O)O)cc4)ccc3CC(O)CO)ccc21` (centres undefined) yielded a melting point of 145 °C.

For the molecule `CCOC(=O)c1cc(C#N)c(Cl)cc1OC`, the melting point is 102 to 103 °C.

As for `CS(=O)c1ccc2nc(NC(=N)N)nc(-c3ccccc3)c2c1` (centres undefined), the melting point fell in the range of 175 to 180 °C.

In the case of `C[C@H]1COc2c(N3C[C@@H](N)[C@@H](C4CC4)C3)c(F)cc3c(=O)c(C(=O)O)cn1c23`, the melting point fell in the range of 218 to 220 °C.

The molecule `COc1cc(OC)nc(NC(=O)NS(=O)(=O)c2ccccc2S(=O)(=O)OCC(F)(F)F)n1` returned a melting point of 203 to 205 °C.

In turn, `CCOC(=O)CCCCc1cccc(-c2nc(=O)c3ccccc3s2)n1` had a melting point of 87 to 88 °C.

With `CN(C)c1nc(N)nc(-c2cc(Cl)ccc2Cl)n1`, the melting point was 178 to 179 °C.

In turn, `COc1nc(C)nc(OC)c1N1CCCn2c1nc1c(Cl)ccc(C(O)(C3CC3)C3CC3)c12` gave a melting point of 204 to 205 °C.

Molecule `CC(CS)C(=O)N(CC(=O)O)Cc1ccco1` (centres undefined) showed a melting point of 150 to 153 °C.

For the molecule `FC(F)(F)c1ccc(-c2ncc(C#Cc3cc4ccccc4s3)s2)cc1`, the melting point lay in the range of 178 to 180 °C.

The molecule `CCOC(=O)Cc1ccc(NC(=O)C(Cc2ccccc2)NS(=O)(=O)c2ccc(Cl)cc2)cc1` (racemic) had a melting point of 148 to 150 °C.

The molecule `CC1CC(=O)c2cc(O)cnc2C1` (centres undefined) came in with a melting point of 210 to 212 °C.

Consider `COc1ccc(-c2nnc(N3CCC(O)CC3)nc2-c2ccc(OC)cc2)cc1`, for which the melting point is 105 to 108 °C.

Turning to `Cc1cc(C(=O)OC(C)(C)C)c(NC(=O)Nc2ccc(Oc3ccccc3)cc2)s1`, the melting point was in the range of 130 to 132 °C.

`COc1cccc(CNc2nc(NC[C@@H](C)O)nc3c2ncn3C(C)C)c1O` registered a melting point of 100 to 103 °C.

As for `Cc1cc(O)ccc1NCCCCCCBr`, the melting point lay in the range of 142 to 144 °C.

As to `O=C(NC(Cc1ccccc1Cl)C(=O)N1CCSC1)c1cc2cc(Cl)ccc2[nH]1` (centres undefined), the melting point is 214 to 216 °C.

`NNC(=O)c1cc(N2CCN(c3ccc([N+](=O)[O-])cc3)CC2)ccn1` had a melting point of 230 to 232 °C.

Consider `Cc1ccc(S(=O)(=O)Nc2ccc3c(=O)c4c(sc3c2)CC(C)(C)CC4)cc1`, for which the melting point turned out to be 279 °C.

The molecule `CN(C)CC(C)(C)Oc1ccc(Nc2cc(-c3cccc(-n4ncc5cc(C(C)(C)C)cc(F)c5c4=O)c3CO)nn(C)c2=O)nc1` had a melting point of 136 to 144 °C.

Consider `COC(=O)C(C)Oc1ccc(NC(=O)OCCO)cc1` (centres undefined), for which the melting point is 90.5 to 92.8 °C.

In turn, `CC(C)C[C@H](NC(=O)[C@H](Cc1c[nH]cn1)NC(=O)[C@H](Cc1cccc2ccccc12)NC(=O)OCc1ccccc1)[C@@H](O)CC=O` displayed a melting point of 166 to 168 °C.

`N#Cc1ncccc1C(=O)OCc1csc(-c2cccc(Cl)c2)n1` showed a melting point of 130 °C.

`Cc1nc(-c2cc(-n3c(=O)cc(C(F)(F)F)n(C)c3=O)ccc2Cl)sc1C` showed a melting point of 200 °C.

Regarding `COc1ccnc(CCc2nc3cc(-c4cccs4)cnc3[nH]2)c1`, the melting point fell in the range of 132 to 133 °C.

Consider `COCC1CN(c2ccc(C3CCC(O)CC3)cc2)C(=O)O1` (racemic), for which the melting point was 109 to 110 °C.

With `COc1ccc(NC(=O)Nc2ccccc2)cc1NC(=S)Nc1cc(Cl)cc(Cl)c1`, the melting point lay in the range of 218 to 219 °C.

In turn, `COC(=O)c1ccc(C=CC(=O)C=Cc2ccc(C(=O)OC)cc2)cc1` came in with a melting point of 206 to 210 °C.

`COC(=O)c1cc(Cl)c(NC(C)=O)cc1OC1C=CCCC1` (centres undefined): the melting point lay in the range of 100 to 102 °C.

Regarding `CS(=O)(=O)CS(=O)(=O)Cl`, the melting point is 109 to 111 °C.

`COc1ccc(C(=CC=Cc2ccc(N(c3ccc(C)cc3)c3ccc(C)cc3)cc2)c2ccc(OC)cc2)cc1` returned a melting point of 133 to 135 °C.

`Clc1cc(C(Cl)(Cl)Cl)nc(C(Cl)(Cl)Cl)c1`: the melting point lay within 101 to 102 °C.

Turning to `CNC(=S)N1Cc2ccccc2C2(Cc3ccccc3O2)C1` (centres undefined), the melting point amounted to 165 °C.

The molecule `Cc1nnc2n1-c1ccccc1C(c1ccc(Cl)cc1)=NC2NN(C(=O)NN)C(=O)c1ccccc1` (centres undefined) gave a melting point of 243 to 245 °C.

On to `CC(=O)c1cc2cc(OCCNC[C@H](O)COc3ccccc3)ccc2o1`, for which the melting point lay in the range of 122 to 123 °C.

`COc1cc(/C=C/CO)ccc1OCc1coc(-c2ccccc2)n1` displayed a melting point of 113 to 114 °C.

With `Nc1ccc2cccc(Nc3cc(-c4ccc(C(F)(F)F)cc4)ncn3)c2n1`, the melting point lay in the range of 211 to 213 °C.

On to `Cn1c(=O)c2c(-c3ccccc3)n(-c3ccccc3N)cc2n(C)c1=O`, for which the melting point is > 300 °C.

`N#CCNC(=O)C1(NC(=O)c2ccc(Cn3ccnc3)cc2)CCCCC1`: the melting point fell in the range of 194 to 196 °C.

For the molecule `O=c1[nH]c2cc(Cl)cc(Cl)c2c(=O)n1Cc1ccccc1Cl`, the melting point was 193 to 198 °C.

`COc1cc(C)c(Cc2cnoc2)cc1OC`: the melting point was 68.5 to 70.5 °C.

For the molecule `CCOC(=O)c1cc(-c2ccc(C(F)(F)F)cc2)n[nH]1`, the melting point worked out at 162 °C.

With `CCCNC(=O)N(CC(=O)OCC)CC1CC2c3cccc4[nH]cc(c34)CC2N(C)C1` (centres undefined), the melting point was in the range of 109 to 110 °C.

The molecule `CC(O)CN1CCNC1=S` (centres undefined) came in with a melting point of 101 to 102 °C.

`O=C(O)c1cn(-c2ccnc3ccccc23)cc1C1CC1` had a melting point of 195 °C.

`Brc1ccc(-c2ccc3ccccc3c2)cc1` gave a melting point of 121 to 123 °C.

On to `Cc1oc2c(NC(=O)c3c(Cl)cccc3Cl)cccc2c1CC1CCCCC1`, for which the melting point lay within 189 to 190 °C.

Molecule `CCOC(=O)Nc1ccc2c(c1)CCC2=O` showed a melting point of 181 to 182 °C.

`CCOC(=O)C1=C(C)NC(CSCCc2ccccc2)=C(C(=O)OCC)C1c1cccc([N+](=O)[O-])c1` (centres undefined) registered a melting point of 73 to 75 °C.

Consider `OCC1Cc2c([nH]c3ccccc23)CN1C(=S)SCc1ccc(Cl)cc1` (centres undefined), for which the melting point was 175 to 176 °C.

`CCOC(=O)C=C(C)C=CC=C(C)C=Cc1c(C)c(CC)c(OC)c(CC)c1C` registered a melting point of 153 to 154 °C.

Molecule `CCOc1cc(C2c3cccc(C4CC4C(N)=O)c3C(=O)N2CCS(C)(=O)=O)ccc1O` (centres undefined) had a melting point of 296 °C.

The molecule `CCOC(=O)c1cccc(O)c1C` returned a melting point of 58 to 60 °C.

`CCCCCCC(O)CCCCCCCC(COC(C)=O)(COC(C)=O)NC(C)=O` (centres undefined) gave a melting point of 82 to 84 °C.

In turn, `COCCn1cnc2cc(CN3CCN(C(c4ccccc4)c4ccccc4)CC3)ccc21` gave a melting point of 162 °C.

On to `C=CCc1cc(C(=O)c2ccccc2)c(O)cc1OCCCCC#N`, for which the melting point was in the range of 60 to 62 °C.

Turning to `CSc1ccccc1-c1ccc(C(=O)O)cc1`, the melting point fell in the range of 220 to 222 °C.

In turn, `O=c1[nH]c2cccnc2n1-c1ccc2c(c1)OCO2` showed a melting point of 256 to 258 °C.

As to `COCCCOc1ccc(/C=C(\C)C(=O)O)c(Oc2ncc(Cl)cc2Cl)c1`, the melting point is 128 to 130 °C.

`Clc1ccc(C(Cn2ccnc2)OCc2cc(Cl)nc3ccccc23)c(Cl)c1` (centres undefined) yielded a melting point of 180 to 181 °C.

`c1ccc(Cn2ccnc2CC2COc3ccccc3O2)cc1` (centres undefined) yielded a melting point of 105 to 107 °C.

On to `Nc1ccc(Cn2ncnn2)cc1`, for which the melting point lay in the range of 86 to 87 °C.

Turning to `COC(=O)C(C)(C)c1ccc(Cl)c([N+](=O)[O-])c1`, the melting point was 160 to 161 °C.

`CCOC(=O)c1[nH]c(I)c(C)c1CC` registered a melting point of 122 to 124 °C.

The molecule `O=[N+]([O-])c1ccc2c(c1)C(c1ccccc1Cl)=NCc1nc(CO)cn1-2` came in with a melting point of 173 to 174 °C.

Consider `O=C(Nc1ccccn1)C1=C(O)c2sc3ccccc3c2S(=O)(=O)N1`, for which the melting point is 240 to 242 °C.

`OCc1ncc(-c2cccs2)s1` yielded a melting point of 67 to 68 °C.

As to `Cn1cccc1-c1ccc(C(F)(F)F)cc1`, the melting point was 39 to 40 °C.

Molecule `CCC1c2ccc(C#N)n2-c2cc(F)c(F)cc2N1S(=O)(=O)c1ccc(OC)c(C)c1` (centres undefined) yielded a melting point of 153 to 155 °C.

`COc1ccccc1-c1cc2c(ccn2C)c2c1C(=O)NC2=O` returned a melting point of 243 to 245 °C.

`CC(=O)N(C)Cc1ccc(NC(=O)/C=C/c2cnn(C)c2-c2ccc(F)cc2)cc1` came in with a melting point of 192 to 193 °C.

`COc1ccc(-c2cc3c(C#N)c(OC)ccc3o2)cc1` returned a melting point of 120 to 122 °C.

For the molecule `NC(=O)c1cccc(OCCCCCCBr)c1`, the melting point was in the range of 115 to 117 °C.

With `CC1=NN=C(C=Cc2cccc(F)c2)c2cc3c(cc2C1)OCO3`, the melting point fell in the range of 161 to 162 °C.

In turn, `CC(=O)N1CCN(CCOC2c3ccccc3C(=O)N2c2ccc3ccc(Cl)nc3n2)CC1` (centres undefined) yielded a melting point of 172 °C.

Turning to `CCCCCCN(C)c1ccc(C=C2SC(=S)N(CC(=O)NS(=O)(=O)c3ccccc3)C2=O)cc1`, the melting point was in the range of 173 to 177 °C.

On to `CCCCNC(=O)C(C)(C)N=NC(C)(C)C(=O)NCCCC`, for which the melting point was 65 °C.

As for `Cc1cc(C)c(S(=O)(=O)NC(COc2ccnc3ccccc23)C(F)(F)F)c(C)c1` (centres undefined), the melting point fell in the range of 211 to 212 °C.

`Nc1nc2c(ncn2C2CC(CO)C(O)C2F)c(=O)[nH]1` (centres undefined) displayed a melting point of 266 to 269 °C.

Consider `N#Cc1cc(F)c(N)c(F)c1`, for which the melting point lay within 110 to 111 °C.

Regarding `CC(O)=C(C(=O)OCc1ccc([N+](=O)[O-])cc1)N1C(=O)C(NC(=O)COc2ccccc2)C1SS(=O)(=O)c1ccc(C)cc1` (centres undefined), the melting point is 159 to 160 °C.

Molecule `CN(C)CCOc1ccc2c(c1)Cc1cc(OCCN(C)C)ccc1O2` displayed a melting point of 85 to 86.5 °C.

With `CC(NC(=O)C(C)(Cc1ccccc1)NC(=O)OC(c1ccc(F)cc1)C(C)C)c1ccccc1` (centres undefined), the melting point was found to be 154 °C.

Broadly, the melting point is the temperature of the solid-liquid transition.
